Measurements: patent publication US12491170B2, “Stable treprostinil prodrugs” (United Therapeutics Corporation, priority 2020, dated 2025)

Key:
[1] = Stability in liver microsomes, human; details: for AUC Mono (treprostinil formed): human
[2] = Stability in liver microsomes, rat; details: for AUC Mono (treprostinil formed): rat
[3] = Stability in liver microsomes, dog; details: for AUC Mono (treprostinil formed): dog
[4] = Stability in cryopreserved hepatocytes, rat; details: for Mono AUC (treprostinil formed): rat
[5] = Stability in cryopreserved hepatocytes, dog; details: for Mono AUC (treprostinil formed): dog
[6] = target: prostaglandin E2 (PGE2) receptor 2 (EP2) (Homo sapiens, UniProt P43116); assay: EP2 receptor cAMP agonist assay (HEK293T cells); assay type: cell-based; details: Table 22, relative to treprostinil EC50 values, * partial agonists or ambiguous dose-response curves
Description: Cyclic AMP assay kit: Multiscreen™ TR-FRET cAMP 1.0 No Wash Assay Kit (Multispan, Inc.)
Cells were thawed from frozen cells and resuspended in assay buffer at desired concentrations. cAMP or Calcium assays were performed according to the manufacturer's protocol using Multiscreen™ TR-FRET cAMP 1.0 No Wash Assay Kit or Multiscreen™ Calcium 1.0 No Wash Kit.
Gas Cyclic AMP (cAMP) Assay: In agonist mode testing, cells were seeded in a 384-well plate at an appropriate density and then were treated with compounds and incubated at 37° C. for 20 minutes. The reaction was terminated by […] trFluor™ Eu-labeled cAMP and trFluor™ 650-labeled anti-cAMP antibody in lysis buffer. […] All testing wells contained 0.1% DMSO in the final concentrations.
Data in graphs are represented in Mean±SD. Dose-dependent responses were fitted with sigmoidal dose-response curves allowing variable slopes using GraphPad Prism version 6 (Graphpad Prism).
These studies used cell lines overexpressing either human IP, EP2 or DP1, or EP1 receptors, and following incubation with varying concentrations of compounds, cAMP levels were measured using Fluorescence Resonance Energy Transfer (FRET).

Chain of prostaglandin E2 (PGE2) receptor 2 (EP2) (P43116 whole entry): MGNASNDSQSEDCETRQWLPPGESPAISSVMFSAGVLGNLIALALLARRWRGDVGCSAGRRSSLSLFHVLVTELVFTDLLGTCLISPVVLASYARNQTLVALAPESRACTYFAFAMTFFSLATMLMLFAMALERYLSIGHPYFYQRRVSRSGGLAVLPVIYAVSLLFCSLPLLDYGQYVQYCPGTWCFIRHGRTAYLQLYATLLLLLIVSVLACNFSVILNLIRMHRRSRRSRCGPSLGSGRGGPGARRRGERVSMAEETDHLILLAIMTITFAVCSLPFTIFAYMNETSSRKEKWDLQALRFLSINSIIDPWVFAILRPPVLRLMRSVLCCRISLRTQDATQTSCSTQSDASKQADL

Compound | Treprostinil Concentration 0 min [1] [µM] | Treprostinil Concentration 15 min [1] [µM] | Treprostinil Concentration 30 min [1] [µM] | Treprostinil Concentration 60 min [1] [µM] | Treprostinil Concentration 120 min [1] [µM] | AUC Mono (treprostinil formed) [1] [µmol·min/L] | Treprostinil Concentration 0 min [2] [µM] | Treprostinil Concentration 15 min [2] [µM] | Treprostinil Concentration 30 min [2] [µM] | Treprostinil Concentration 60 min [2] [µM] | Treprostinil Concentration 120 min [2] [µM] | AUC Mono (treprostinil formed) [2] [µmol·min/L] | Treprostinil Concentration 0 min [3] [µM] | Treprostinil Concentration 15 min [3] [µM] | Treprostinil Concentration 30 min [3] [µM] | Treprostinil Concentration 60 min [3] [µM] | Treprostinil Concentration 120 min [3] [µM] | AUC Mono (treprostinil formed) [3] [µmol·min/L] | Treprostinil Concentration 0 min [4] [µM] | Treprostinil Concentration 120 min [4] [µM] | also measured
CCCCCC(CCC1C(O)CC2Cc3c(cccc3OCC(=O)O)CC21)OC(=O)CC (stereo not shown) [Prodrug LV] | 1.17 | 1.01 | 0.837 | 0.736 | 0.389 | 44.9 | 0.26 | 0.43 | 0.525 | 0.586 | 0.553 | 30.9 | 0.971 | 0.961 | 0.934 | 0.915 | 0.743 | 53.3 | 0.0159 | 0.391 | Mono AUC (treprostinil formed) [4]: 49.3 µmol·min/L; Treprostinil Concentration 15 min [5]: 0.781 µM; Treprostinil Concentration 120 min [5]: 0.53 µM; Mono AUC (treprostinil formed) [5]: 71.2 µmol·min/L; EP2 Relative to Tre [6]: 50x
CCCCCC(CCC1C(O)CC2Cc3c(cccc3OCC(=O)O)CC21)OP(=O)(O)O (stereo not shown) [Prodrug VI] | 0.02 | 0.038 | 0.038 | 0.03 | 0.061 | 2.4 | 0.27 | 0.39 | 0.46 | 0.53 | 0.73 | 31.4 | 0.21 | 0.32 | 0.43 | 0.48 | 0.75 | 29.4 | 0.128 | 0.53 | Mono AUC (treprostinil formed) [4]: 66.9 µmol·min/L; Treprostinil Concentration 15 min [5]: 0.581 µM; Treprostinil Concentration 120 min [5]: 0.548 µM; Mono AUC (treprostinil formed) [5]: 62.9 µmol·min/L; EP2 Relative to Tre [6]: 4x; EP2 Relative to Tre ([6]; listed as Prodrug VI repeat): 9x
CCCCCC(CCC1C(O)CC2Cc3c(cccc3OCC(=O)O)CC21)OC(C)=O (stereo not shown) [Prodrug XLIII] | 0.883 | 0.681 | 0.602 | 0.513 | 0.341 | 32.6 | 0.035 | 0.0741 | 0.111 | 0.145 | 0.206 | 8.0 | 0.964 | 0.917 | 0.899 | 0.932 | 0.873 | 54.7 | 0.00292 | 0.503 | Mono AUC (treprostinil formed) [4]: 41.4 µmol·min/L; Treprostinil Concentration 15 min [5]: 0.628 µM; Treprostinil Concentration 120 min [5]: 0.4 µM; Mono AUC (treprostinil formed) [5]: 54.0 µmol·min/L; EP2 Relative to Tre [6]: 461x
